The values that follow come from ChEMBL document CHEMBL1177715, “Design and synthesis of androgen receptor full antagonists bearing a p-carborane cage: promising ligands for anti-androgen withdrawal syndrome” (J Med Chem, 2010).

Activity calls are given as the source filed them. The calls are words filed in the database; no cut-off is given here.

Test [1] deals with SC-3. As to the kind of experiment: Growth inhibition of mouse SC3 cells after 3 days by WST-8 assay. The test is classed as functional, cell-based. Particulars: SC-3, 72 h. Background: Tetrazolium dyes change colour on reduction, which living cells bring about.
Test [2] concerns LNCaP. As to the kind of experiment: Growth stimulatory activity of human LNCAP cells. The test is classed as functional, cell-based.

A word on the IC50: it is the concentration at which inhibition is half-maximal. Read a high IC50 as lower potency. Take `CC(C)(O)C(=O)Nc1ccc([N+](=O)[O-])c(C(F)(F)F)c1` [HYDROXYFLUTAMIDE]: half-maximal inhibition in test [1] (IC50) required 240 nM. In addition, the result in test [2] was Active. The compound `CC(C)C(=O)Nc1ccc([N+](=O)[O-])c(C(F)(F)F)c1` [FLUTAMIDE] registered a half-maximal inhibitory concentration (IC50) in test [1] of 720 nM. In test [2], the result was Active. In the case of `C[C@](O)(CS(=O)(=O)c1ccc(F)cc1)C(=O)Nc1ccc(C#N)c(C(F)(F)F)c1` [(R)-BICALUTAMIDE], the half-inhibitory concentration (IC50) in test [1] amounted to 140 nM.
